Measurements from PMC4611054, “Quantitative time-resolved analysis reveals intricate, differential regulation of standard- and immuno-proteasomes” (eLife, 2015).
Residues, ends and D or L forms follow the SMILES beside them.

Columns and labels:
Format in all cases: biochemical
[1] = molecular target: T1, 20S mouse liver proteasome (Mus musculus, UniProt O55234+P70195+Q60692); assay: Bz-VGR-MCA hydrolysis with and without peptide; conditions: activator; allosteric non-catalytic modifier site; terminal groups of LLVY not told; pH 7.2, 37 °C
T1 construct: gene Psmb5; native 20S core particle purified from mouse liver; alpha7beta7beta7alpha7; with Proteasome subunit beta type-1; Proteasome subunit beta type-2; Proteasome subunit beta type-3; Proteasome subunit beta type-4; Proteasome subunit alpha type-1; Proteasome subunit alpha type-2; Proteasome subunit alpha type-3; Proteasome subunit alpha type-4; Proteasome subunit alpha type-5; Proteasome subunit alpha type-6; Proteasome subunit alpha type-7

[2] = molecular target: T2, human 20S s-proteasome (T2 proteasome) (Homo sapiens, UniProt P28072+P28074+Q99436); assay: fluorogenic peptide hydrolysis time courses, Bayesian fit of compartment model; conditions: TEAD buffer pH 7.2, 37 °C, 20-640 μM substrate, model-inferred active site affinity
T2 construct: gene PSMB5; native 20S core particle purified from T2 cells; alpha7beta7beta7alpha7; with Proteasome subunit beta type-1; Proteasome subunit beta type-2; Proteasome subunit beta type-3; Proteasome subunit beta type-4; Proteasome subunit alpha type-1; Proteasome subunit alpha type-2; Proteasome subunit alpha type-3; Proteasome subunit alpha type-4; Proteasome subunit alpha type-5; Proteasome subunit alpha type-6; Proteasome subunit alpha type-7

[3] = molecular target: T1, 20S mouse liver proteasome; assay: fluorogenic peptide hydrolysis, initial velocities, ABC-SMC fit of Michaelis-Menten and substrate-inhibition models; conditions: TEAD buffer pH 7.2, 37 °C, authors state the models fit poorly

Question: For `Cc1cc(=O)oc2cc(NC(=O)[C@H](Cc3ccc(O)cc3)NC(=O)[C@@H](NC(=O)[C@H](CC(C)C)NC(=O)[C@H](CC(C)C)NC(=O)CCC(=O)O)C(C)C)ccc12` [LLVY peptide] (HELM PEPTIDE1{[O=C(O)CCC(=O)[*:2]].L.L.V.Y.[Cc1cc(=O)oc2cc(N[*:1])ccc12]}$$$$V2.0), which “Bz-VGR-MCA hydrolysis with and without peptide” value [1] is on record?
Answer: degradation rate of the substrate Bz-VGR-MCA increases in the presence of the peptide LLVY

Question: For `Cc1cc(=O)oc2cc(NC(=O)[C@H](Cc3ccc(O)cc3)NC(=O)[C@@H](NC(=O)[C@H](CC(C)C)NC(=O)[C@H](CC(C)C)NC(=O)CCC(=O)O)C(C)C)ccc12` [Suc-LLVY-MCA] (HELM PEPTIDE1{[O=C(O)CCC(=O)[*:2]].L.L.V.Y.[Cc1cc(=O)oc2cc(N[*:1])ccc12]}$$$$V2.0), which KaS ([2]; site mainly beta5) is on record?
Answer: we observe a higher active site affinity (KaS) with a lower Hill coefficient (na)

Question: What about the KM ([3]; site mainly beta5/beta5i) of the same compound?
Answer: Scatterplot of the kinetic parameters vmax and KM from the inferred posterior parameter distributions

Question: `Cc1cc(=O)oc2cc(NC(=O)[C@H](CCC(=O)O)NC(=O)[C@H](CC(C)C)NC(=O)[C@H](CC(C)C)NC(=O)OCc3ccccc3)ccc12` [Z-LLE-MCA] (HELM PEPTIDE1{[O=C(OCc1ccccc1)[*:2]].L.L.E.[Cc1cc(=O)oc2cc(N[*:1])ccc12]}$$$$V2.0) was tested. Which KaS ([2]; site mainly beta1) did it give?
Answer: for i-proteasomes we observe lower affinity to the active site (KaS)

Question: And the KM ([3]; site mainly beta1/beta1i)?
Answer: The substrates Suc-LLVY-MCA, Bz-VGR-MCA and Z-LLE-MCA were hydrolysed by mouse proteasome
